Experimental data published in patent publication US20210292330A1, “PYRROLIDINE-FUSED HETEROCYCLES” (Erasca, Inc., priority 2020, published 2021).

Target: T1, KRAS 4B G12C protein (Homo sapiens, UniProt P01116, G12C)
T1 construct: This protein contained 188 amino acids in total, including an N-terminal 6-Histidine tag; made in house; host or cells: E. coli BL21
Test: In vitro covalent adduct formation (CAF) assay by LC-MS
Assay type: binding
Settings: compound 10 μM, protein 5 μM, 22° C., percentage of protein bound by the compound
Method in brief: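 Recombinant His-TEV-tagged KRAS 4B G12C (residues 1-169, E. coli) at 5 μM in Tris-buffered saline pH 7.4 was incubated with 10 μM compound (4% DMSO) at 22° C. for one hour, sampling over time. Intact-mass LC-MS free:adduct ratios gave % protein bound; duplicates.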

CAF (10 minutes/60 minutes) at 10 micromolar: 10 minutes | CAF (10 minutes/60 minutes) at 10 micromolar: 60 minutes | SMILES
78% | 91% | C=CC(=O)N1CCN(c2nc(OC[C@@H]3CCCN3C)nc3c2CN(Cc2c(C)cccc2O)C3)C[C@@H]1CC#N [1-55]
7% | 31% | C=CC(=O)N1CCN(c2nc(OC[C@@H]3CCCN3C)nc3c2CN(C2CCc4ccccc42)C3)[C@@H](C(N)=O)C1 (stereo partly shown) [1-193]
84% | 97% | C=CC(=O)N1CCN(c2nc(OC[C@@H]3CCCN3C)nc3c2CN(Cc2cccc4[nH]ncc24)C3)C[C@@H]1CC#N [1-108]
27% | 80% | C=CC(=O)N1CCN(c2nc(OC[C@@H]3CCCN3C)nc3c2CN(S(=O)(=O)c2ccccc2C)C3)C[C@@H]1CC#N [1-237]
34% | 67% | C=CC(=O)N1CC2CCC1CN2c1nc(OC[C@@H]2CCCN2C)nc2c1CN(Cc1cc(O)ccc1Cl)C2 (stereo partly shown) [1-160]
16% | 50% | C=CC(=O)N1CCN(c2nc(Oc3cnc(N)nc3C3CC3)nc3c2CN(C2CCc4ccccc42)C3)C[C@@H]1CC#N (stereo partly shown) [1-207]
73% | 95% | C=CC(=O)N1CCN(c2nc(OC[C@@H]3CCCN3C)nc3c2CN(S(=O)(=O)c2cccc4ccccc24)C3)C[C@@H]1CC#N [1-238]
11% | 43% | C=CC(=O)N1CCN(c2nc(OC[C@@H]3CCCN3C)nc3c2CN(Cc2c(O)cccc2F)C3)[C@@H](C)C1 [1-47]
66% | 82% | C=CC(=O)N1CCN(c2nc(OC[C@@H]3CCCN3C)nc3c2CN(C2CCc4ccccc42)C3)C[C@@H]1C#N (stereo partly drawn) [1-155, (2R)-1-acryloyl-4-(6-(2,3-dihydro-1H-inden-1-yl)-2-(((S)-1-methylpyrrolidin-2-yl)methoxy)-6,7-dihydro-5H-pyrrolo[3,4-d]pyrimidin-4-yl)piperazine-2-carbonitrile]
0%/ 0% | 0%/ 0% | C=CC(=O)N1CCN(c2nc(OC[C@@H]3CCCN3C)nc3c2CN(C2CCc4ccccc42)C3)C[C@@H]1CNC(C)=O (stereo partly shown) [1-217]
0%/ 0% | 0%/ 0% | C#Cc1ccccc1CN1Cc2nc(OC[C@@H]3CCCN3C)nc(N3CCN(C(=O)C=C)[C@@H](CC#N)C3)c2C1 [1-235]
0%/ 0% | 0%/ 0% | C=CC(=O)N1CCN(c2nc(OC[C@@H]3CCCN3C)nc3c2CN(Cc2[nH]c(=O)ccc2Cl)C3)[C@@H](C)C1 [1-69, 6-((4-((S)-4-acryloyl-2-methylpiperazin-1-yl)-2-(((S)-1-methylpyrrolidin-2-yl)methoxy)-5,7-dihydro-6H-pyrrolo[3,4-d]pyrimidin-6-yl)methyl)-5-chloropyridin-2(1H)-one]
0% | 2% | C=C(F)C(=O)N1CCN(c2nc(OC[C@@H]3CCCN3C)nc3c2CN(Cc2n[nH]cc2C)C3)C[C@@H]1CC#N [1-344]
0% | 5% | C=CC(=O)N1CCN(c2nc(OC[C@@H]3CCCN3C)nc3c2CN(Cc2cc(Cl)ccc2F)C3)[C@@H](C)C1 [1-33]
89% | 96% | C=CC(=O)N1CCN(c2nc(OC[C@@H]3CCCN3C)nc3c2CN(Cc2ccccc2F)C3)C[C@@H]1CC#N [1-102]
98% | 99% | C=CC(=O)N1CCN(c2nc(OC[C@@H]3CCCN3C)nc3c2CN(Cc2c(F)cccc2Cl)C3)C[C@@H]1CC#N [1-112]
6% | 48% | C=C(F)C(=O)N1CCN(c2nc(OC[C@@H]3CCCN3C)nc3c2CN(Cc2cc(N)ncc2Cl)C3)C[C@@H]1CC#N [1-332]
70% | 92% | C=CC(=O)N1CCN(c2nc(OC[C@@H]3CCCN3C)nc3c2CN(Cc2cc(Cl)ccc2C)C3)C[C@@H]1CC#N [1-67]

CAF (10 minutes/60 minutes) at 10 micromolar: 10 minutes | CAF (10 minutes/60 minutes) at 10 micromolar: 60 minutes | SMILES
96% | 98% | C=CC(=O)N1CCN(c2nc(OC[C@@H]3CCCN3C)nc3c2CN(Cc2cccc(Cl)c2Cl)C3)C[C@@H]1CC#N [1-81]
1% | 11% | C=CC(=O)N1CCN(c2nc(OC[C@@H]3CCCN3C)nc3c2CN(Cc2cccc4ncccc24)C3)C[C@@H]1CC#N [1-318]
0%/ 0% | 0%/ 0% | C=CC(=O)N1CCN(c2nc(OC[C@@H]3CCCN3C)nc3c2CN(Cc2cc(C(F)(F)F)ccc2C)C3)[C@@H](C)C1 [1-15]
 | NA/ 55% | C=CC(=O)N1CCN(c2nc(OC[C@@H]3CCCN3C)nc3c2CN(C2CCc4ccccc42)C3)C[C@H]1C(N)=O (stereo partly shown) [1-163]
95% | 94% | C=C(F)C(=O)N1CCN(c2nc(OC[C@@H]3CCCN3C)nc3c2CN(Cc2cc(O)ccc2C(C)C)C3)C[C@@H]1CC#N [1-218]
0% | 1% | C=CC(=O)N1CCN(c2nc(OC[C@@H]3CCCN3C)nc3c2CN(Cc2c(Cl)cccc2OC)C3)C[C@@H]1C(O)C(F)(F)F (stereo partly shown) [1-98]
79% | 94% | C=CC(=O)N1CCN(c2nc(OC[C@@H]3CCCN3C)nc3c2CN(Cc2cccc4nc[nH]c24)C3)C[C@@H]1CC#N [1-201]
2% | 12% | C#C[C@H]1CN(C(=O)C=C)CCN1c1nc(OC[C@@H]2CCCN2C)nc2c1CN(C1CCc3ccccc31)C2 (stereo partly drawn) [1-162, 1-[(3S)-4-[6-(2,3-dihydro-1H-inden-1-yl)-2-{[(2S)-1-methylpyrrolidin-2-yl]methoxy}-5H,7H-pyrrolo[3,4-d]pyrimidin-4-yl]-3-ethynylpiperazin-1-yl]prop-2-en-1-one]
0% | 5% | C=CC(=O)N1CCN(c2nc(OC[C@@H]3CCCN3C)nc3c2CN(C2CCc4ccccc42)C3)C[C@@H]1CCC#N (stereo partly shown) [1-212]
3% | 24% | C=C(F)C(=O)N1CCN(c2nc(OC[C@@H]3CCCN3C)nc3c2CN(Cc2cc(Cl)ccc2C(F)(F)F)C3)C[C@@H]1CC#N [1-222]
97% | 100% | C=CC(=O)N1CCN(c2nc(OC[C@@H]3CCCN3C)nc3c2CN(Cc2c(C)cccc2OC(F)F)C3)C[C@@H]1CC#N [1-83]
88% | 94% | C=CC(=O)N1CCN(c2nc(OC[C@@H]3CCCN3C(C)C)nc3c2CN(C2CCc4ccccc42)C3)C[C@@H]1CC#N (stereo partly shown) [1-176]
21% | 70% | C=CC(=O)N1CCN(c2nc(OC[C@@H]3CCCO3)nc3c2CN(Cc2c(O)cccc2F)C3)C[C@@H]1CC#N [1-95]
87% | 95% | C=C(F)C(=O)N1CCN(c2nc(OC[C@@H]3CCCN3C)nc3c2CN(Cc2c(CC)ccc(O)c2OC)C3)C[C@@H]1CC#N [1-313]
0%/ 0% | 0%/ 0% | C=CC(=O)N1CC2CC(=O)CC1CN2c1nc(OC)nc2c1CN(C1CCc3ccccc31)C2 (stereo not shown) [1-250]
35% | 85% | C=CC(=O)N1CCN(c2nc(OC[C@@H]3CCCN3C)nc3c2CN(c2cccc4ccccc24)C3)C[C@@H]1CC#N [1-9, 2-[(2S)-4-(2-{[(2S)-1-methylpyrrolidin-2-yl]methoxy}-6-(naphthalen-1-yl)-5H,7H-pyrrolo[3,4-d]pyrimidin-4-yl)-1-(prop-2-enoyl)piperazin-2-yl]acetonitrile]
83% | 92% | C=C(F)C(=O)N1CCN(c2nc(OC[C@@H]3CCCN3C)nc3c2CN(Cc2nc(N)ccc2Cl)C3)C[C@@H]1CC#N [1-339]

SMILES | CAF (10 minutes/60 minutes) at 10 micromolar: 10 minutes | CAF (10 minutes/60 minutes) at 10 micromolar: 60 minutes
C=CC(=O)N1C2CCCC1CN(c1nc(OC[C@@H]3CCCN3C)nc3c1CN(Cc1cc(O)ccc1Cl)C3)C2 [1-149] | 0% | 8%
C=CC(=O)N1C2COCC1CN(c1nc(OC[C@@H]3CCCN3C)nc3c1CN(Cc1cc(O)ccc1Cl)C3)C2 [1-124] | 21% | 67%
C=CC(=O)N1C2CCCC1CN(c1nc(OC[C@@H]3CCCN3C)nc3c1CN(Cc1cc(OC)ccc1Cl)C3)C2 [1-148] | 0%/ 0% | 0%/ 0%
C=CC(=O)N1C2CC(=O)CC1CN(c1nc(OC[C@@H]3CCCN3C)nc3c1CN(C1CCc4ccccc41)C3)C2 (stereo partly shown) [1-233] | 0% | 5%
C=CC(=O)N1C2CC(=O)CC1CN(c1nc(OC[C@@H]3CCCN3C)nc3c1CN(Cc1cc(O)ccc1Cl)C3)C2 [1-328] | 14% | 39%
